Source: ChEMBL document CHEMBL5724562, “Toxicity screen in isolated B cell assay results for EUbOPEN Chemogenomics Library” (2024)
Positions of bridges follow the written chain, without caps; N, C: chain ends. Non-standard residues stand in square brackets, D forms with d. Residues, ends and D or L forms follow the SMILES beside them. Orn = NCCC[C@H](N)C(=O)O; Mpa = O=C(O)CCS

Test system: B cell
Experiment: Cytotoxicity screening of chemical probes in isolated B cell assay. Data is normalized to DMSO control, the cell viability average of replicates are reported. Reduction of ATP level more than 20% indicate compromised cell health status.
Details: human

SMILES: COC(c1ccccc1)(c1ccccc1)[C@H](Oc1nc(C)cc(C)n1)C(=O)O [AMBRISENTAN]
- Cell Viability (1 µM): 104.904%

SMILES: O=C1CCc2cc(Nc3cc(OC4CCOCC4)c([N+](=O)[O-])cc3Cl)ccc2N1
- Cell Viability (1 µM): 94.8245%

SMILES: O=C(O)CNC(=O)c1c(O)c2ccccc2n(Cc2ccccc2)c1=O
- Cell Viability (1 µM): 96.2966%

SMILES: O=C(O)Cc1ccccc1Nc1c(Cl)cccc1Cl [DICLOFENAC]
- Cell Viability (1 µM): 103.39%

SMILES: CC(C)N(CCCNC(=O)Nc1ccc(C(C)(C)C)cc1)C[C@H]1O[C@@H](n2cc(Br)c3c(N)ncnc32)[C@H](O)[C@@H]1O
- Cell Viability (1 µM): 95.9292%

SMILES: CC(C)Cc1ccc([C@@H](C)C(=O)NS(C)(=O)=O)cc1 [REPARIXIN]
- Cell Viability (1 µM): 94.4279%

SMILES: Nc1c(C(=O)NCc2ccc(C(=O)NCCCC3CCCCC3)cc2)cnn1-c1ccccc1 [SR-318]
- Cell Viability (0.1 µM): 97.9561%

SMILES: N#CC1(c2ccccn2)CCN(Cc2cc(C(=O)O)c(=O)n3ccccc23)CC1 [MSD-M1PAM]
- Cell Viability (1 µM): 98.7103%

SMILES: O=C(NCc1ccc(F)cc1)N1CCN2C(=O)OC(c3ccccc3)(c3ccccc3)C2C1 (stereo not given)
- Cell Viability (1 µM): 104.95%

SMILES: Cl.Cl.NC1(c2ccc(-c3nc4ccn5c(=O)[nH]nc5c4cc3-c3ccccc3)cc2)CCC1
- Cell Viability (1 µM): 85.9288%

SMILES: CCOc1ccc(C[C@H]2NC(=O)CCSSC[C@@H](C(=O)N3CCC[C@H]3C(=O)N[C@@H](CCCN)C(=O)NCC(N)=O)NC(=O)[C@H](CC(N)=O)NC(=O)[C@H]([C@@H](C)O)NC(=O)[C@H]([C@@H](C)CC)NC2=O)cc1 [ATOSIBAN] ([Mpa][dY](Et)ITNCP[Orn]G-NH2; disulfide 1-6)
- Cell Viability (1 µM): 101.789%

SMILES: COc1cc(C(=O)N(CCCc2ccccc2)Cc2ccc(CC(=O)O)cc2)cc(OC)c1C
- Cell Viability (1 µM): 101.167%

SMILES: C[C@@H](OC[C@@]1(c2ccccc2)CC[C@]2(CCC(=O)N2)CN1)c1cc(C(F)(F)F)cc(C(F)(F)F)c1 [ROLAPITANT]
- Cell Viability (1 µM): 97.3629%

SMILES: CN1C[C@H](Nc2cnn(C)c(=O)c2Br)C[C@H](c2ccccc2)C1
- Cell Viability (1 µM): 94.5817%

SMILES: O=C(Nc1cnc(Oc2ccc(F)cc2)nc1)N1CCc2ncccc2[C@@H]1c1ccc(F)cc1 [BAY-899]
- Cell Viability (1 µM): 98.9586%

SMILES: COc1ccc2c(O[C@@H]3C[C@H]4C(=O)N[C@]5(C(=O)O)CC5/C=C\CCCCC[C@H](NC(=O)OC5CCCC5)C(=O)N4C3)cc(-c3csc(NC(=O)C(C)C)n3)nc2c1C (stereo not given in full) [BI 1230]
- Cell Viability (1 µM): 99.1645%

SMILES: Clc1cccc(-c2nnnn2Cc2cccnc2)c1Cl
- Cell Viability (1 µM): 97.1983%

SMILES: CC(=O)Nc1cccc(-n2c(=O)n(C3CC3)c(=O)c3c(Nc4ccc(I)cc4F)n(C)c(=O)c(C)c32)c1 [TRAMETINIB]
- Cell Viability (1 µM): 85.5796%

SMILES: COc1cc(C#N)ccc1S(=O)(=O)Nc1ccc2c(c1)cc(C)c(=O)n2C
- Cell Viability (1 µM): 99.4263%

SMILES: COc1cccc(CNC(=O)c2nc3scc(COCc4ccc(C(=O)O)cc4)c3c(=O)[nH]2)c1 [T-26c]
- Cell Viability (0.1 µM): 102.037%

SMILES: COc1ccc(C(=O)N2CCN(C(=O)/C=C/c3ccc(Br)cc3)CC2)cc1
- Cell Viability (1 µM): 97.705%

SMILES: C[C@@H](NC(=O)Nc1cc2[nH]ncc2c(CO)n1)c1ccccc1 [ERKi]
- Cell Viability (1 µM): 88.9841%

SMILES: Cc1cc2c(cc1N1C(=O)c3cccc4c(CCCO)ccc(c34)C1=O)n(C)c(=O)n2C
- Cell Viability (1 µM): 92.6096%

SMILES: COc1cc(C(=O)N2CC[C@@H](O)[C@@H](N)C2)cc2nc(-c3cc4ccccc4n3CC3CC3)n(C)c12.Cl
- Cell Viability (1 µM): 96.5784%

SMILES: C[C@H](c1ccnc(Nc2nc3ccc(-c4cc(N(C)C)ncn4)cc3[nH]2)c1)N1CCN(C(=O)CC(F)(F)F)CC1 [BAY-985]
- Cell Viability (1 µM): 78.1838%

SMILES: Cl.O=C([C@@H](Cc1cccc(C(F)(F)F)c1)NS(=O)(=O)c1cc(F)c2c(c1)CCNC2)N1CCCC1
- Cell Viability (1 µM): 98.8503%

SMILES: C[C@]12N[C@H](Cc3ccccc31)c1ccccc12 [DIZOCILPINE]
- Cell Viability (1 µM): 102.296%

SMILES: CCCc1cc(C)[nH]c(=O)c1CNC(=O)c1cc(-c2ccnc(N3CCN(C)CC3)c2)cc2c1cnn2C(C)C
- Cell Viability (1 µM): 92.8371%

SMILES: CC(C)N(CCCCOCC(=O)NS(C)(=O)=O)c1cnc(-c2ccccc2)c(-c2ccccc2)n1 [SELEXIPAG]
- Cell Viability (1 µM): 99.3334%

SMILES: O=C(NCC(=O)N1CCCC1)Nc1ccc2cnccc2c1
- Cell Viability (1 µM): 100.263%

SMILES: C[C@@H](O[C@H]1OCCN(Cc2n[nH]c(=O)[nH]2)[C@H]1c1ccc(F)cc1)c1cc(C(F)(F)F)cc(C(F)(F)F)c1 [APREPITANT]
- Cell Viability (1 µM): 101.584%

SMILES: CC#C[C@@H](CC(=O)O)c1ccc(OCc2cccc(-c3ccc(C(F)(F)F)cc3)c2)cc1
- Cell Viability (1 µM): 93.0276%

SMILES: COc1cc(-c2cn([C@H]3CCc4c(F)cccc4N(CC(F)(F)F)C3=O)nn2)ccc1-n1cnc(C)c1
- Cell Viability (1 µM): 98.1038%

SMILES: CN1C(=O)[C@@H](N2CCc3c(nn(Cc4ccccc4)c3Br)C2=O)COc2ccccc21 [TP-030-2]
- Cell Viability (0.1 µM): 101.749%

SMILES: CCNC(=O)c1cc2c(N3CCOCC3C)ccnc2[nH]1 (stereo not given)
- Cell Viability (1 µM): 99.1799%

SMILES: Cn1cnc2c(F)c(Nc3ccc(Br)cc3Cl)c(C(=O)NOCCO)cc21 [SELUMETINIB]
- Cell Viability (1 µM): 92.6054%

SMILES: Cc1ccc(Cn2nc(C(=O)N[C@@H]3C(C)(C)[C@@H]4CC[C@@]3(C)C4)cc2-c2ccc(Cl)c(C)c2)cc1
- Cell Viability (1 µM): 95.8945%

SMILES: Cc1cc(=O)n(C)c2cc(N3C(=O)CC[C@H](NS(=O)(=O)CC(C)C)[C@H]3c3ccc(Cl)cc3)ccc12
- Cell Viability (1 µM): 97.6321%

SMILES: Cc1nnc2c3ccccc3c(N[C@@H](C)[C@H](c3ccccc3)N(C)C)nn12
- Cell Viability (1 µM): 95.5642%

SMILES: Cc1ccc(/C(=C\CN2CCCC2)c2ccccn2)cc1 [TRIPROLIDINE]
- Cell Viability (1 µM): 98.8273%

SMILES: Cc1c(C(=O)NN2CCCCC2)nn(-c2ccc(Cl)cc2Cl)c1-c1ccc(Cl)cc1 [RIMONABANT]
- Cell Viability (1 µM): 99.45%

SMILES: Cc1cc(C)cc([C@@H]2c3cc(C)ccc3NC(=O)CN2C(=O)c2ccc(Br)s2)c1
- Cell Viability (1 µM): 95.4438%

SMILES: CO[C@@H](C)c1c(Nc2ccc([C@H](N(C)C(=O)C3CCS(=O)(=O)CC3)C(F)(F)F)cc2)cnc2cc(Cl)nn12 [NVS-MALT1]
- Cell Viability (1 µM): 90.4509%

SMILES: COc1cc(Nc2nccc(-c3cnn4nc(OC)ccc34)n2)cc(C(F)(F)F)c1
- Cell Viability (1 µM): 93.0077%

SMILES: COc1cc(Nc2ccnc3ccc(Br)cc23)cc(OC)c1OC
- Cell Viability (1 µM): 95.869%

SMILES: Cc1nc(N2CC[C@H](O)C2)ncc1-c1cc(C(F)(F)F)cc2[nH]ncc12
- Cell Viability (1 µM): 99.9461%

SMILES: C[C@H]1CCCN1Cc1nc2cc(NC(=O)c3ccc4cnccc4c3)ccc2[nH]1
- Cell Viability (1 µM): 90.4338%

SMILES: O=C(NCCN1CCOCC1)c1ccc2c(c1)C(=O)c1ccc(Nc3ccc(F)c(NC(=O)c4ccccc4)c3)cc1CC2 [FS-694]
- Cell Viability (1 µM): 91.9931%

SMILES: CN(C)C(=O)/C(C#N)=C/c1ccc(-c2nc3cnc4[nH]ccc4c3n2C2CCCCC2)o1
- Cell Viability (1 µM): 89.3026%

SMILES: CCOC(=O)Nc1cc(-c2ccc(C)c(NS(C)(=O)=O)c2)nn2c(C)nnc12
- Cell Viability (1 µM): 84.5677%

SMILES: Cl.Cl.Cl.c1ccc(N2CCN(Cc3nc4ccccc4[nH]3)CC2)nc1
- Cell Viability (1 µM): 98.1024%

SMILES: COc1ccc2c(c1)O[C@@H](c1ccc(OC)c(OC)c1)C[C@H]2NC(=O)C1(c2ccc3c(c2)OC(F)(F)O3)CC1 [A-1596586]
- Cell Viability (1 µM): 101.385%

SMILES: COc1cc(-c2cn(C)c(=O)c3cnccc23)c(OC)cc1CN(C)C
- Cell Viability (1 µM): 95.7323%

SMILES: Cc1cc(Nc2nccc(C)n2)cc(-c2cnc([C@@]3(O)CC[C@H](C(=O)O)C(C)(C)C3)s2)c1 [MRL-SYKi]
- Cell Viability (0.1 µM): 97.9587%

SMILES: O[C@]1(C(F)(F)F)CCCC[C@H]1Nc1ccc(F)cc1 [BAY-390]
- Cell Viability (0.1 µM): 101.834%

SMILES: CCc1ccccc1C(=O)Nc1n[nH]c2c(C)c(F)c(C3C(C#N)=C(C)N(C)C(C)=C3C#N)cc12 [BAY-3827]
- Cell Viability (1 µM): 97.1659%

SMILES: CC(=O)N1CCC(c2ccc(C(=O)NC(=N)N)cc2C(F)(F)F)CC1 [BI 9627]
- Cell Viability (1 µM): 95.0864%

SMILES: CC[C@H]1OC(=O)[C@H](C)[C@@H](O[C@H]2C[C@@](C)(OC)[C@@H](O)[C@H](C)O2)[C@H](C)[C@@H](O[C@@H]2O[C@H](C)C[C@H](N(C)C)[C@H]2O)[C@@]2(C)CC(C)=C(O2)[C@H](C)[C@@H](O)[C@]1(C)O
- Cell Viability (1 µM): 98.1033%

SMILES: CC(=O)Nc1c(C(C)=O)c(=O)n(C)c2nc(-c3ccc(Cl)cc3Cl)c(-c3ccc(Cl)cc3)cc12 [NAPHTHYRIDINONE]
- Cell Viability (1 µM): 96.2894%

SMILES: CN(C)[C@@H]1CCN(c2cc(-c3ccccc3)nc3ccnn23)C1 [(R)-ZINC-3573]
- Cell Viability (1 µM): 100.756%

SMILES: CCOCCn1cc(C(=O)Nc2ccc(-n3nc(-c4cccnc4)cc3C(F)(F)F)cn2)ccc1=O [BI 1935]
- Cell Viability (1 µM): 94.8333%

SMILES: CCC(=O)N1CCOc2c(cc(-c3ccc(OC)c(OC)c3)cc2OCC2CCCN(C)C2)C1 (stereo not given)
- Cell Viability (1 µM): 98.9735%

SMILES: CC(C)NC(=O)N1CC[C@H](NC2=Nc3cc(F)ccc3N(CC(F)F)c3ccc(Cl)cc32)C1
- Cell Viability (1 µM): 98.1837%

SMILES: COc1ccc(CCc2nc3cc(-c4c(C)noc4C)ccc3n2C[C@H](C)N2CCOCC2)cc1Cl
- Cell Viability (1 µM): 94.0053%

SMILES: Cc1nc[nH]c1CCN.Cl
- Cell Viability (1 µM): 99.4273%

SMILES: CCOC(=O)c1cc2cc(-c3cc(C(=O)NCc4ccc(C(=O)O)cc4)nn3C)ccc2[nH]1 [BI 4394]
- Cell Viability (0.1 µM): 99.7292%

SMILES: CS(=O)(=O)N1CCCC(NC(=O)[C@H](CCC2CCCCC2)NC(=O)c2ccc(CNC(=O)c3cnc4ccccn34)cc2)C1 (stereo not given in full) [SR-302]
- Cell Viability (0.1 µM): 99.1038%

SMILES: COc1ccccc1C(=O)Nc1cc2c(cc1N1CCNCC1C)n(C)c(=O)n2C (stereo not given)
- Cell Viability (1 µM): 98.4804%

SMILES: O=C(O)c1n[nH]c2c1C[C@H]1C[C@@H]21
- Cell Viability (1 µM): 98.0706%

SMILES: CNC(=O)c1ccc(Nc2ncc(C(F)(F)F)c(NCc3nccnc3N(C)S(C)(=O)=O)n2)cc1 [DEFACTINIB]
- Cell Viability (0.1 µM): 103.534%

SMILES: Cc1cccc(-c2cnc3occ(-c4ccc(C(=O)O)c(C5CCCC5)c4)c3c2)c1
- Cell Viability (1 µM): 94.5514%

SMILES: CC1(C)[C@H]2C[C@H](C/C=C\CCCC(=O)O)[C@@H](NC(=O)c3csc4ccc(O)cc34)[C@@H]1C2
- Cell Viability (1 µM): 100.906%

SMILES: O=C1c2ccc(Nc3ccc(F)cc3F)cc2CCc2ccc(OC[C@H](O)CO)cc21 [Skepinone-L]
- Cell Viability (1 µM): 96.8594%

SMILES: CC(=O)Nc1c(F)cc(C(=O)N[C@H]2CC[C@H](O)CC2)cc1O[C@@H](C)c1ccccc1 [GSK046]
- Cell Viability (1 µM): 96.5866%

SMILES: CCOC(=O)CCNc1cc(N2CCc3ccccc3CC2)nc(-c2ccccn2)n1
- Cell Viability (1 µM): 95.6308%
